Test results: the Kinase Knowledgebase extract (Sharma et al. 2016)

Legend:
[1] = target: MAPK14 (UniProt Q16539); test: MAPK14 Kinase Inhibition
[2] = target: MAPK14 (UniProt Q16539); test: MAPK14 Kinase Binding Inhibition
[3] = target: MAPK14 (UniProt Q16539); test: TNF Inhibition (In Vivo)

Chain of MAPK14 (Q16539 whole entry, looked up): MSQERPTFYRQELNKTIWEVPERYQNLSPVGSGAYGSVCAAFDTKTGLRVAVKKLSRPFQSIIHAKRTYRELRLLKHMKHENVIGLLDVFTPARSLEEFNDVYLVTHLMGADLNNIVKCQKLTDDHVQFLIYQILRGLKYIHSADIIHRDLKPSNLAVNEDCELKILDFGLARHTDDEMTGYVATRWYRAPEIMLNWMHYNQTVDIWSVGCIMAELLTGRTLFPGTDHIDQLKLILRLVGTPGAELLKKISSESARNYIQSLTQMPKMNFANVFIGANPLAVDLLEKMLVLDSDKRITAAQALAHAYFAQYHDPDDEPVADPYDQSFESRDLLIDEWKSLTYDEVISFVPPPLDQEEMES

SMILES | IC50 [1] | inhibition [2] | inhibition [3]
CCOC(=O)N1CCC(n2cnc(-c3ccc(F)cc3)c2-c2ccnc(Nc3ccc(OCc4ccccc4)cc3)n2)CC1 | < 50 µM | – | –
CN1CCC(n2cnc(-c3ccc(F)cc3)c2-c2ccnc(NCCc3c[nH]c4ccc(Cl)cc34)n2)CC1 | – | < 50 µM | –
CN1CCC(n2cnc(-c3ccc(F)cc3)c2-c2ccnc(Nc3ccccc3)n2)CC1 | – | < 50 µM | < 50 µM
CN1CCC(n2cnc(-c3ccc(F)cc3)c2-c2ccnc(NCCCN3CCOCC3)n2)CC1 | – | < 50 µM | –
CN1CCC(n2cnc(-c3ccc(F)cc3)c2-c2ccnc(NC3CCSCC3)n2)CC1 | – | < 50 µM | –
COc1ccc(Nc2nccc(-c3c(-c4ccc(F)cc4)ncn3C3CCNCC3)n2)cc1 | < 50 µM | – | –
Oc1cccc(Nc2nccc(-c3c(-c4ccc(F)cc4)ncn3C3CCNCC3)n2)c1 | < 50 µM | – | –
CCOCCCNc1nccc(-c2c(-c3ccc(F)cc3)ncn2C2CCNCC2)n1 | – | < 50 µM | –
C[S+]([O-])c1ccc(-c2ncn(C3CCNCC3)c2-c2ccnc(Nc3ccccc3)n2)cc1 (stereo not given) | < 50 µM | – | –
O[C@H]1CC[C@H](n2cnc(-c3ccc(F)cc3)c2-c2ccnc(Nc3ccccc3)n2)CC1 | – | < 50 µM | –
Fc1ccc(Nc2nccc(-c3c(-c4ccc(F)cc4)ncn3C3CCNCC3)n2)cc1 | < 50 µM | – | < 50 µM
Fc1ccc(-c2ncn(C3CCNCC3)c2-c2ccnc(Nc3ccccc3)c2)cc1 | – | < 50 µM | < 50 µM
Oc1ccc(Nc2nccc(-c3c(-c4ccc(F)cc4)ncn3C3CCNCC3)n2)cc1 | < 50 µM | – | –
CCOC(=O)N1CCC(n2cnc(-c3ccc(F)cc3)c2-c2ccnc(Nc3cccc(OCc4ccccc4)c3)n2)CC1 | < 50 µM | – | –
Fc1ccc(-c2ncn(C3CCNCC3)c2-c2ccnc(Nc3ccccc3F)n2)cc1 | < 50 µM | – | < 50 µM
O=C1CCC(n2cnc(-c3ccc(F)cc3)c2-c2ccnc(Nc3ccccc3)n2)CC1 | – | < 50 µM | < 50 µM
Fc1ccc(-c2ncn(C3CCNCC3)c2-c2ccnc(Nc3ccc(F)c(F)c3)n2)cc1 | < 50 µM | – | –
CN1CCC(n2cnc(-c3ccc(F)cc3)c2-c2ccnc(Nc3cccc(Br)c3)n2)CC1 | – | < 50 µM | –
COc1ccccc1Nc1nccc(-c2c(-c3ccc(F)cc3)ncn2C2CCNCC2)n1 | < 50 µM | – | –

SMILES | IC50 [1] | inhibition [2] | inhibition [3]
CN1CCC(n2cnc(-c3ccc(F)cc3)c2-c2ccnc(NCc3cccc(Cl)c3)n2)CC1 | – | < 50 µM | < 50 µM
CN1CCC(n2cnc(-c3ccc(F)cc3)c2-c2ccnc(NCc3ccc4c(c3)OCO4)n2)CC1 | – | < 50 µM | –
CN1CCC(n2cnc(-c3ccc(F)cc3)c2-c2ccnc(NCc3cccc4ccccc34)n2)CC1 | – | < 50 µM | < 50 µM
CN1CCC(n2cnc(-c3ccc(F)cc3)c2-c2ccnc(NC3CC(C)(C)NC(C)(C)C3)n2)CC1 | – | < 50 µM | –
CC1(C)CC(n2cnc(-c3ccc(F)cc3)c2-c2ccnc(Nc3ccccc3)n2)CC(C)(C)N1 | – | < 50 µM | –
COc1cccc(Nc2nccc(-c3c(-c4ccc(F)cc4)ncn3C3CCNCC3)n2)c1 | < 50 µM | – | –
NCCNc1nccc(-c2c(-c3ccc(F)cc3)ncn2C2CCNCC2)n1 | – | 50 µM | –
Fc1ccc(-c2ncn(C3CCNCC3)c2-c2ccnc(Nc3cccc(C(F)(F)F)c3)n2)cc1 | < 50 µM | – | –
CN1CCC(n2cnc(-c3ccc(F)cc3)c2-c2ccnc(NCCO)n2)CC1 | – | < 50 µM | < 50 µM
Fc1ccc(-c2ncn(C3CCNCC3)c2-c2ccnc(Nc3ccccc3)n2)cc1 | – | < 50 µM | < 50 µM
CCOC(=O)N1CCC(Nc2nccc(-c3c(-c4ccc(F)cc4)ncn3C3CCN(C)CC3)n2)CC1 | – | < 50 µM | –
Fc1ccc(cc1)c2ncn(C3CCNCC3)c2c4ccnc(NCCCN5=CNC=C5)n4 | – | < 50 µM | –
CN1CCC(n2cnc(-c3ccc(F)cc3)c2-c2ccnc(NCc3ccccc3)n2)CC1 | – | < 50 µM | < 50 µM
CN1CCC(n2cnc(-c3ccc(F)cc3)c2-c2ccnc(NC3CCN(Cc4ccccc4)CC3)n2)CC1 | – | < 50 µM | –
Fc1ccc(-c2ncn(C3CCNCC3)c2-c2ccnc(NCCCn3ccnc3)n2)cc1 | – | – | < 50 µM
CC1(C)CC(n2cnc(-c3ccc(F)cc3)c2-c2ccnc(NCCO)n2)CC(C)(C)N1 | – | < 50 µM | < 50 µM
CN1CCC(n2cnc(-c3ccc(F)cc3)c2-c2ccnc(NC3CCNCC3)n2)CC1 | – | < 50 µM | –
CSc1ccc(-c2ncn(C3CCNCC3)c2-c2ccnc(Nc3ccccc3)n2)cc1 | < 50 µM | – | –
Fc1ccc(-c2ncn(C3CCNCC3)c2-c2ccnc(Nc3cccc(F)c3)n2)cc1 | < 50 µM | – | < 50 µM
